Tests used:
DGKζ = target: T1, DGKζ (Homo sapiens, UniProt Q13574); experiment: In vitro DGKζ inhibition assay (ADP-Glo); assay type: biochemical; details: His-tagged human recombinant DGKζ 0.4 nM, 30 μM ATP, 20 μM DLG, 90 minute incubation
T1 construct: His; purchased Signal Chem D30-10H
Method: (§1) The DGKα and DGKζ biochemical reactions were performed using His-tagged human recombinant enzymes (Signal Chem, DGKα, #D21-10BH; DGKζ, #D30-10H)) and DLG (Dilauroyl-sn-glycerol) lipid substrate (Signal Chem, #D430-59). ADP-Glo assay was performed using ADP-Glo™ kinase Assay kit (Promega, #V9104). The reactions were carried out in assay buffer containing 40 mM Tris, pH 7.5, 0.1% CHAPS, 0.1% Prionex, 40 mM NaCl, 5 mM MgCl2, 1 mM CaCl2, and 1 mM DTT. DGKα reactions contained 0.1 nM DGKα, 50 μM ATP, and 20 μM DLG. And DGKζ reactions contained 0.4 nM DGKζ, 30 μM ATP, and 20 μM DLG.
(§2) Compounds were added with top concentration of 2 mM with 11 point, 3-fold dilution series. Enzyme solution (contains 2×DGK enzyme concentration in 1× assay buffer) was added to the plate in 2 μL/well volume, followed by 2 μL/well of substrate solution (contains 2× concentration of ATP and DLG substrate in 1× assay buffer). Plates were then centrifuged for 1 min at 1200 RPM and sealed or lidded. For 4 μL reaction volume, test compounds were therefore diluted 100× to final top concentration of 20 μM. After 90 minute incubation, reactions were quenched by addition of 2 μL/well Promega ADP-Glo Reagent, followed by centrifugation and lidding. After 60 min incubation, 2 μL/well Promega Kinase Detection Reagent was added, plates centrifuged, and incubated for 30 min. Plates were then read using Luminescence method on BMG PHERAstar FSX plate reader. Percent inhibition was calculated and IC50s were determined using 4-parameter fit in Genedata Screener. Labcyte Echo acoustic dispenser was used for compound addition, and Formulatrix Tempest liquid handler was used for all reagent dispenses.

DGKα = target: T2, DGKα (Homo sapiens, UniProt P23743); experiment: In vitro DGKα inhibition assay (ADP-Glo); assay type: biochemical; details: His-tagged human recombinant DGKα 0.1 nM, 50 μM ATP, 20 μM DLG, 90 minute incubation
T2 construct: His; purchased Signal Chem D21-10BH
Method: as §1, §2

T1 sequence (Q13574 whole entry): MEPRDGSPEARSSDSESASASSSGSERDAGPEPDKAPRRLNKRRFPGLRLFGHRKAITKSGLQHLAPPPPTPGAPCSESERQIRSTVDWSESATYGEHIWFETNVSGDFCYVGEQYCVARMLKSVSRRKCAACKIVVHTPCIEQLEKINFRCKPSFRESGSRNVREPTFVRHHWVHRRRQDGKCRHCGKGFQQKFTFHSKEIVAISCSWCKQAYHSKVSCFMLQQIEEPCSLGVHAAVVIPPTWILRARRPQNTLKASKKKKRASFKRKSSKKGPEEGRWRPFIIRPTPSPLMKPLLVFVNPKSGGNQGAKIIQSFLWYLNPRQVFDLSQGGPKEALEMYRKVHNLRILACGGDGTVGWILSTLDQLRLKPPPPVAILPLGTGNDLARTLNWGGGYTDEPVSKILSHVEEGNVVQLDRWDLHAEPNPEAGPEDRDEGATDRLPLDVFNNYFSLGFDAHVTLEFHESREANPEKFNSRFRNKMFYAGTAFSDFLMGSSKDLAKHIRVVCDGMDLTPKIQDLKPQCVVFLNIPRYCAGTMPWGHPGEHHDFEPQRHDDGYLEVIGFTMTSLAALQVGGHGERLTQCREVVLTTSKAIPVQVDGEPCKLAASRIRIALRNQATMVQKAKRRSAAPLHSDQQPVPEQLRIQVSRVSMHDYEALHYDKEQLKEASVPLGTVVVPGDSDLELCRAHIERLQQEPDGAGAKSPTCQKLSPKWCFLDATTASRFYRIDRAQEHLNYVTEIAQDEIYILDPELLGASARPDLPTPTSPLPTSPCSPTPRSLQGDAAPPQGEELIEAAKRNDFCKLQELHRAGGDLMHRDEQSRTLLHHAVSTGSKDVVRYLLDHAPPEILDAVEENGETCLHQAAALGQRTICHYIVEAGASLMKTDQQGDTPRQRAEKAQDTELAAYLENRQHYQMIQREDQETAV
T2 sequence (P23743 whole entry): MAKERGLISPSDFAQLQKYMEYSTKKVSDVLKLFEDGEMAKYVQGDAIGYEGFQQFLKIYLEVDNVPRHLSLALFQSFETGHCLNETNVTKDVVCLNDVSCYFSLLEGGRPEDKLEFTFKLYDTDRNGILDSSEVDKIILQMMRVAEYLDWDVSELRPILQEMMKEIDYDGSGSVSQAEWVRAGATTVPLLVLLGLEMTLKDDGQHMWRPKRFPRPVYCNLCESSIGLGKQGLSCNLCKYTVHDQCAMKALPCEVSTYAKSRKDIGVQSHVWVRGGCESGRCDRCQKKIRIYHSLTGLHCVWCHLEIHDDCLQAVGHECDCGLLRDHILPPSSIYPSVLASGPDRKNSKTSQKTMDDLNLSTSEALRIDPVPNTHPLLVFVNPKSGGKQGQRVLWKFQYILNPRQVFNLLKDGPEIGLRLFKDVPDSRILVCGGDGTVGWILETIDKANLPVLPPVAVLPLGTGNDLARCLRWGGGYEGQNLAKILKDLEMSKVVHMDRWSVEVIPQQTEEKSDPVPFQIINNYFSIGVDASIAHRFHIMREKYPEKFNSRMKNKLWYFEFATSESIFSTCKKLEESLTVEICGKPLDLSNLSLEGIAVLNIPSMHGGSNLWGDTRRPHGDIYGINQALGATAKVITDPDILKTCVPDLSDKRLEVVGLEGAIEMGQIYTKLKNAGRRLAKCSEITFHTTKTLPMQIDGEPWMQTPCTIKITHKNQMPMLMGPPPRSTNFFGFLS

SMILES	IC50 (DGKζ) [nM]	IC50 (DGKα) [nM]
CC[C@@H](c1ccc(Cl)cc1)N1C[C@H](C)N(c2nc3nncn3c3c2ncn3C[C@@H]2CCCO2)C[C@H]1C [Example 57, 4-((2S,5R)-4-((S)-1-(4-Chlorophenyl)propyl)-2,5-dimethylpiperazin-1-yl)-1-(((S)-tetrahydrofuran-2-yl)methyl)-1H-[1,2,4]triazolo[3,4-b]purine]	20 to 200	< 20
Cc1nc2c(N3C[C@@H](C)N(Cc4ccc(C(F)(F)F)cc4)C[C@@H]3C)nc3nncn3c2n1C[C@@H]1CCCO1 [Example 39, 4-((2S,5R)-2,5-Dimethyl-4-(4-(trifluoromethyl)benzyl)piperazin-1-yl)-2-methyl-1-(((S)-tetrahydrofuran-2-yl)methyl)-1H-[1,2,4]triazolo[3,4-b]purine]	< 20	< 20
Cc1nc2c(N3C[C@@H](C)N([C@H](c4ccc(Br)cc4F)C(C)C)C[C@@H]3C)nc3nncn3c2n1C[C@@H]1CCCO1 [Example 26, 4-((2S,5R)-4-((S)-1-(4-Bromo-2-fluorophenyl)-2-methylpropyl)-2,5-dimethylpiperazin-1-yl)-2-methyl-1-(((S)-tetrahydrofuran-2-yl)methyl)-1H-[1,2,4]triazolo[3,4-b]purine]	< 20	< 20
CC[C@H](c1ccc(C(F)(F)F)cc1)N1C[C@H](C)N(c2nc3nncn3c3c2ncn3C[C@@H]2CCCO2)C[C@H]1C [Example 60, 4-((2S,5R)-2,5-dimethyl-4-((R)-1-(4-(trifluoromethyl)phenyl)propyl)piperazin-1-yl)-1-(((S)-tetrahydrofuran-2-yl)methyl)-1H-[1,2,4]triazolo[3,4-b]purine]	< 20	< 20
C[C@@H]1CN(c2nc3nncn3c3c2ncn3C[C@@H]2CCCO2)[C@@H](C)CN1C(c1ccc(Cl)cn1)c1ccc(Cl)cn1 [Example 20, 4-((2S,5R)-4-(Bis(5-chloropyridin-2-yl)methyl)-2,5-dimethylpiperazin-1-yl)-1-(((S)-tetrahydrofuran-2-yl)methyl)-1H-[1,2,4]triazolo[3,4-b]purine]	< 20	< 20
CC[C@@H](c1ccc(C(F)(F)F)cc1)N1C[C@H](C)N(c2nc3nncn3c3c2ncn3C[C@@H]2CCCO2)C[C@H]1C [Example 59, 4-((2S,5R)-2,5-Dimethyl-4-((S)-1-(4-(trifluoromethyl)phenyl)propyl)piperazin-1-yl)-1-(((S)-tetrahydrofuran-2-yl)methyl)-1H-[1,2,4]triazolo[3,4-b]purine]	< 20	< 20
Cc1nc2c(N3C[C@@H](C)N(C(C)c4ccc(C(F)(F)F)cc4)C[C@@H]3C)nc3nncn3c2n1C[C@@H]1CCCO1 (stereo partly drawn) [Example 67, 4-((2S,5R)-2,5-Dimethyl-4-(1-(4-(trifluoromethyl)phenyl)ethyl)piperazin-1-yl)-2-methyl-1-(((S)-tetrahydrofuran-2-yl)methyl)-1H-[1,2,4]triazolo[3,4-b]purine]	< 20	< 20
Cc1nc2c(N3C[C@@H](C)N(C(c4ccc(Cl)c(F)c4)C(C)C)C[C@@H]3C)nc3nncn3c2n1C[C@@H]1CCCO1 (single isomer, unassigned) [Example 23]	< 20	< 20
CC(C)CC(c1ccc(Cl)cc1)N1C[C@H](C)N(c2cc3nncn3c3c2ncn3C[C@@H]2CCCO2)C[C@H]1C (single isomer, unassigned) [Example 51]	< 20	< 20
CC(c1ccc(C(F)(F)F)cc1)N1C[C@H](C)N(c2nc3nncn3c3c2ncn3C[C@@H]2CCCO2)C[C@H]1C (stereo partly drawn) [Example 68, 4-((2S,5R)-2,5-Dimethyl-4-(1-(4-(trifluoromethyl)phenyl)ethyl)piperazin-1-yl)-1-(((S)-tetrahydrofuran-2-yl)methyl)-1H-[1,2,4]triazolo[3,4-b]purine]	< 20	< 20
C[C@@H]1CN(c2nc3nncn3c3c2ncn3C[C@@H]2CCCO2)[C@@H](C)CN1Cc1ccc(Cl)c(F)c1 [Example 77, 4-((2S,5R)-4-(4-Chloro-3-fluorobenzyl)-2,5-dimethylpiperazin-1-yl)-1-(((S)-tetrahydrofuran-2-yl)methyl)-1H-[1,2,4]triazolo[3,4-b]purine]	< 20	< 20

The next lines start with the values.

IC50 (DGKζ) [nM]	IC50 (DGKα) [nM]	SMILES
< 20	< 20	Cc1nc2c(N3C[C@@H](C)N(C(c4ccc(C(F)F)cc4F)C(C)C)C[C@@H]3C)nc3nncn3c2n1C[C@@H]1CCCO1 (stereo partly drawn) [Example 25, 4-((2S,5R)-4-(1-(4-(Difluoromethyl)-2-fluorophenyl)-2-methylpropyl)-2,5-dimethylpiperazin-1-yl)-2-methyl-1-(((S)-tetrahydrofuran-2-yl)methyl)-1H-[1,2,4]triazolo[3,4-b]purine]
< 20	< 20	CC(CC(c1ccc(Cl)c(F)c1)N1C[C@H](C)N(c2nc3nncn3c3c2ncn3C[C@@H]2CCCO2)C[C@H]1C)C(F)(F)F (single isomer, unassigned) [Example 17]
< 20	< 20	Cc1nc2c(N3C[C@@H](C)N([C@@H](c4ccc(Cl)cc4)[C@H]4CC4(F)F)C[C@@H]3C)nc3nncn3c2n1C[C@@H]1CCCO1 (single isomer, unassigned) [Example 56]
< 20	< 20	Cc1nc2c(N3C[C@@H](C)N(C(c4ccc(Cl)c(F)c4F)C4CC(F)(F)C4)C[C@@H]3C)nc3nncn3c2n1C[C@@H]1CCCO1 (stereo partly drawn) [Example 80, 4-((2S,5R)-4-((4-Chloro-2,3-difluorophenyl)(3,3-difluorocyclobutyl)methyl)-2,5-dimethylpiperazin-1-yl)-2-methyl-1-(((S)-tetrahydrofuran-2-yl)methyl)-1H-[1,2,4]triazolo[3,4-b]purine]
< 20	< 20	C[C@@H]1CN(c2nc3nncn3c3c2ncn3C[C@@H]2CCCO2)[C@@H](C)CN1C(c1ccc(Cl)cc1)[C@@H]1CC1(F)F (single isomer, unassigned) [Example 6]
< 20	< 20	CC[C@@H](c1ccc(C(F)(F)F)cc1)N1C[C@H](C)N(c2nc3nncn3c3c2nc(C)n3C[C@@H]2CCCO2)C[C@H]1C [Example 89, 4-((2S,5R)-2,5-Dimethyl-4-((S)-1-(4-(trifluoromethyl)phenyl)propyl)piperazin-1-yl)-2-methyl-1-(((S)-tetrahydrofuran-2-yl)methyl)-1H-[1,2,4]triazolo[3,4-b]purine]
< 20	< 20	Cc1nc2c(N3C[C@@H](C)N(C(c4ccc(Cl)cc4)C4CC4)C[C@@H]3C)nc3nncn3c2n1C[C@@H]1CCCO1 (stereo partly drawn) [Example 54, 4-((2S,5R)-4-((4-Chlorophenyl)(cyclopropyl)methyl)-2,5-dimethylpiperazin-1-yl)-2-methyl-1-(((S)-tetrahydrofuran-2-yl)methyl)-1H-[1,2,4]triazolo[3,4-b]purine]
< 20	< 20	Cc1nc2c(N3C[C@@H](C)N(Cc4ccc(Cl)c(Cl)c4)C[C@@H]3C)nc3nncn3c2n1C[C@@H]1CCCO1 [Example 72, 4-((2S,5R)-4-(3,4-Dichlorobenzyl)-2,5-dimethylpiperazin-1-yl)-2-methyl-1-(((S)-tetrahydrofuran-2-yl)methyl)-1H-[1,2,4]triazolo[3,4-b]purine]
< 20	< 20	Cc1nc2c(N3C[C@@H](C)N(C(c4cc(F)c(Cl)cc4F)C4CC(F)(F)C4)C[C@@H]3C)nc3nncn3c2n1C[C@@H]1CCCO1 (stereo partly drawn) [Example 79, 4-((2S,5R)-4-((4-Chloro-2,5-difluorophenyl)(3,3-difluorocyclobutyl)methyl)-2,5-dimethylpiperazin-1-yl)-2-methyl-1-(((S)-tetrahydrofuran-2-yl)methyl)-1H-[1,2,4]triazolo[3,4-b]purine]
< 20	< 20	Cc1nc2c(N3C[C@@H](C)N(C(CC(C)C)c4ccc(Cl)cc4)C[C@@H]3C)nc3nncn3c2n1C[C@@H]1CCCO1 (single isomer, unassigned) [Example 53]
< 20	< 20	Cc1nc2c(N3C[C@@H](C)N([C@@H](c4ccc(Cl)cc4)C(C)C)C[C@@H]3C)cc3nncn3c2n1C[C@@H]1CCCO1 [Example 66, 4-((2S,5R)-4-((R)-1-(4-chlorophenyl)-2-methylpropyl)-2,5-dimethylpiperazin-1-yl)-2-methyl-1-(((S)-tetrahydrofuran-2-yl)methyl)-1H-imidazo[4,5-e][1,2,4]triazolo[4,3-a]pyridine]
< 20	< 20	CC(C)CC(c1ccc(C(F)(F)F)cc1)N1C[C@H](C)N(c2nc3nncn3c3c2ncn3C[C@@H]2CCCO2)C[C@H]1C (single isomer, unassigned) [Example 14]

— US20250179083A1, “TRICYCLIC TRIAZOLO COMPOUNDS AS DGK INHIBITORS” (Incyte Corporation, priority 2023, published 2025)
